Results taken from patent US5440036A, “1,4-benzoxazine derivatives” (SS Pharmaceutical Co., Ltd., priority 1992, dated 1995).

These compounds were tested on endothelium-ablated preparations of the rat aorta (assay: Vasorelaxing effect to endothelium-ablated preparations of the rat aorta). Settings: 10 min; endothelium-ablated rat aorta rings, contraction by 30 mM K^+, 37° C., sample compound cumulatively applied at intervals of 10 minutes; read-out: IC50 (50% inhibition concentration).
Description: Vasorelaxing effect to endothelium-ablated preparations of the rat aorta:
The aorta of each rat (body weight: 200 to 330 g) was isolated and cut at a width of about 3 mm. Endothelium was then ablated off to form a ring preparation. That preparation was incubated at 37° C., and then suspended under a load of 2 g in 10 ml of the Krebs-Henseleit solution which had been aerated with a mixed gas (95% O2, 5% CO2). Tension was isometrically recorded via an FD transducer ("T2-30-240", trade name; manufactured by Orientec) and a dynamic strain gauge ("6M81", trade name; manufactured by NEC-San-ei) Upon an elapsed time of 60 minutes or longer subsequent to the suspension, that is, after the preparation had become stable, 10^-7 M noradrenaline (Nor) was applied several times. Under contraction by 10^-7 M Nor, 10^-7 acetylcholine was applied. Preparations which were not relaxed by the application of 10^-7 acetylcholine were used in the experiment. 30 mM K^+ were applied. From the time point that its contraction had became uniform, a sample compound was cumulatively applied at intervals of 10 minutes so that the 50% inhibition concentration (IC50) was calculated.
`CC1(C)Oc2ccc(C#N)cc2[C@@H](N2CCCC2=O)[C@@H]1O` (racemic) [Cromakalim, (±)-trans-6-cyano-2,2-dimethyl-4-(2-oxopyrrolidin-1-yl)-3,4-dihydro-2H-1-benzopyran-3-ol, reference compound] showed an IC50 of 134 nM.
`CCC(=O)NN1CC(C)(C)Oc2ccc([N+](=O)[O-])cc21` [Compound No. 8, 2,2-Dimethyl-6-nitro-4-propanoylamino-1,4-benzoxazine] was tested, and the IC50 was 12.6 nM.
Compound `C=CC(=O)NN1CC(C)(C)Oc2ccc([N+](=O)[O-])cc21` [compound 11] has an IC50 of 28.8 nM.
Compound `CC1(C)CN(NC(=O)c2cccnc2)c2cc(C(F)(F)F)ccc2O1` [compound 20] has an IC50 of 51.4 nM.
`CCC1(CC)CN(NC(C)=O)c2cc(C(F)(F)F)ccc2O1` [compound 24] gave an IC50 of 37.9 nM.
`CC(=O)NN1CC(C)(C)Oc2ccc(S(=O)(=O)C(F)(F)C(F)(F)F)cc21` [compound 27] gave an IC50 of 33.6 nM.
For `CC(=O)NN1CC(C)(C)Oc2ccc(S(=O)(=O)C(F)(F)F)cc21` [compound 56], the IC50 was 9.6 nM.
`CCC(=O)NN1CC(C)(C)Oc2ccc(S(=O)(=O)C(F)(F)F)cc21` [compound 57] gave an IC50 of 15.2 nM.
`CC1(C)CN(NC(=O)c2cccnc2)c2cc(S(=O)(=O)C(F)(F)F)ccc2O1` [compound 58] was tested, and the IC50 was 14.3 nM.
